Patent US20190070170A1, “METHOD OF S[…]-1” (Macau University of Science and Technology, priority 2017, published 2019)

How the values were obtained:
C/EBPβ = C/EBPβ phosphorylation and nuclear translocation in LPS-stimulated rat peritoneal macrophages (western blotting, immunofluorescence); format: cell-based; details: SIN 1 h
Protocol: (§1) Sprague-Dawley (SD) rats from the University of Hong Kong were housed in cages with free access to food and water. Peritoneal macrophages of SD rats were isolated as described in Liu J. et al., Pharmacological research 2016, 111:303-315. Briefly, untreated rats were sacrificed and after laparotomy, about 50 ml cold sterile Hank's balanced salt solution (HBSS) was used to lavage the peritoneal cavity at twice, and then the peritoneal lavage fluid was collected and centrifuged at 1500 rpm for 10 min. The cell pellets was suspended at a density 1.5×10^6 cells/ml in pre-hearted DMEM medium with 10% heat-inactivated FBS, penicillin G (100 units/ml), streptomycin ([…]), and L-glutamine (2 mM), followed by seeding in 6-well plates at a density of 4.5×10^6 cells and incubation for 2 h. Then the medium were discarded to remove the non-adherent cells. The adherent cells were further washed for two times with pre-heated DMEM medium to remove floating cells. Next, cells were pre-treated with various concentration of SIN for 1 h, followed by stimulation with LPS (1 μg/ml).
Whole-cell and nuclear proteins were obtained using RIPA lysis buffer (CST, Boston, Mass., USA) and Nuclear and Cytoplasmic Extraction Reagents kit from Thermo Scientific (Asheville, N.C., USA), respectively. […] The levels of protein expression were measured using Odyssey v3.0 software from Li-COR (Lincoln, Nebr., USA). […]

COX-1 [1] = assay: COX-1 protein expression in hind paws of CIA DBA/1 mice; format: in vivo; details: SIN 100 mg/kg i.p.
Protocol: Female DBA/1 mice (8-9 weeks old) were purchased from Shanghai SiLaike (SLAC) Laboratory Animal Company (Shanghai, China) and fed with a chow diet and water at room temperature. Equal volume of complete Freuend's adjuvant (CFA) and Bovine Type II Collagen (CII) were mixed and emulsified using a homogenizer (13,000 rpm) on ice. On day 0, DBA/1 mice were immunized by injecting 50 μl of CII in CFA in the tail, approximately 2 cm from the base of the tail. […] The incidence of joint swelling in each group was recorded every two days since drug treatment. […]
Frozen paws were pulverized in liquid nitrogen using a stainless steel mortar and pestle, then re-suspended in 8 volumes of ice-cold PBS from Invitrogen (San Diego, Calif., USA) with 2.6 mM DTT from Promega (Madison, Wis., USA) and 2×Complete Protease Inhibitor mixture from Roche (Mannheim, Germany), and homogenized on ice bath using a tissue homogenizer from T25 digital, IKA (Stanfen, Germany) at 10,000 rpm/min for 5 min. […] The protein concentrations were measured using a Bio-Rad protein assay kit (Hercules, Calif., USA). […]
(§2) Whole-cell and nuclear proteins were obtained using RIPA lysis buffer (CST, Boston, Mass., USA) and Nuclear and Cytoplasmic Extraction Reagents kit from Thermo Scientific (Asheville, N.C., USA), respectively. […] The levels of protein expression were measured using Odyssey v3.0 software from Li-COR (Lincoln, Nebr., USA).

mPGES-1 = mPGES-1 protein expression in LPS-activated rat peritoneal macrophages (western blotting); format: cell-based; details: SIN or DEX 1 h, LPS 24 h
Protocol: as §1, §2

COX-1 [2] = assay: COX-1 protein expression in IL-1β-stimulated A549 cells (western blotting); format: cell-based; details: IL-1β with SIN or DEX for 48 h
Protocol: RAW264.7 and A549 cell lines were obtained from American Type Culture Collection (ATCC, Manassas, Va., USA) and maintained in DMEM (RAW264.7) or 1640 (A549) medium containing 10% FBS (Gibco-BRL, Grand Island, N.Y., USA) and antibiotics at 37° C. in a humidified atmosphere containing 5% CO2. RAW264.7 cells were plated in 6-well plates at a density of 4×10^5 cells and incubated for 24 h, then the cells were pretreated with different concentrations of SIN for 1 h before stimulating with LPS (100 ng/ml). A549 cells were seeded in 6-well plates at a density of 1×10^5 cells and incubated for 24 h, followed by pretreatment with SIN. A549 cells were then stimulated by IL-1β (1 ng/ml).
Whole-cell and nuclear proteins were obtained using RIPA lysis buffer (CST, Boston, Mass., USA) and Nuclear and Cytoplasmic Extraction Reagents kit from Thermo Scientific (Asheville, N.C., USA), respectively. For immunoblotting, proteins from whole-cell, cytoplasm, nuclear, and microsomal fractions were separated on SDS-PAGE, then transferred onto a nitrocellulose membrane from GE Healthcare Life Sciences (Buckinghamshire, UK), and incubated with 5% skimmed milk at room temperature for 1 h. […] The levels of protein expression were measured using Odyssey v3.0 software from Li-COR (Lincoln, Nebr., USA).

## COC1=C[C@@H]2[C@@H]3Cc4ccc(OC)c(O)c4[C@]2(CCN3C)CC1=O [SIN, sinomenine]
C/EBPβ; LPS 30 min
  LPS-induced phosphorylation of C/EBPβ (Ser105 and T235+T188): inhibitory effects
C/EBPβ; LPS 2 h
  LPS-induced nuclear translocation of C/EBPβ: inhibitory effects
COX-1 [1]
  COX-1 expression in paw tissues: did not produce observable changes
mPGES-1
  mPGES-1 protein expression: significantly and dose-dependently inhibited
COX-1 [2]
  COX-1 protein expression: did not suppress
